Results from US7632666B2 (priority 2005, dated 2009).
Read-outs that look alike come from different tables or passages of the source.

Experiments:
[1] = target: haloalkane dehalogenase DhaA (Rhodococcus rhodochrous, UniProt P0A3G2); format: biochemical, Rhodococcus rhodochrous NCIMB 13064
[2] = target: haloalkane dehalogenase LinB (Sphingobium indicum, UniProt D4Z2G1); format: biochemical, Sphingomonas paucimobilis UT26
[3] = target: haloalkane dehalogenase DbjA (Bradyrhizobium diazoefficiens, UniProt P59337); format: biochemical, Bradyrhizobium japonicum USDA110
[4] = test system: haloalkane dehalogenases DmbA, DmbB, DmbC, DhlA, DhaA, DrbA, LinB, DhmA, DbjA and DbeA; format: biochemical
[5] = target: haloalkane dehalogenase DmbB (Mycobacterium bovis, UniProt P64302); format: biochemical; settings: pH 8.2
[6] = target: haloalkane dehalogenase DmbC (Mycobacterium bovis, UniProt P64304); format: biochemical; settings: pH 8.2
[7] = test system: haloalkane dehalogenase DrbA; format: biochemical, Rhodopirellula baltica; settings: pH 8.2
[8] = target: haloalkane dehalogenase DhmA (Mycobacterium avium, UniProt Q93K00); format: biochemical; settings: pH 8.2
[9] = test system: haloalkane dehalogenase DbeA; format: biochemical, Bradyrhizobium elkanii; settings: pH 8.2
[10] = target: haloalkane dehalogenase DhlA (Xanthobacter autotrophicus, UniProt P22643); format: biochemical, Xanthobacter autotrophicus GJ10
[11] = target: haloalkane dehalogenase LinB wild type (Sphingobium indicum, UniProt D4Z2G1); format: biochemical, Sphingomonas paucimobilis UT26
[12] = target: haloalkane dehalogenase LinB L177A (Sphingobium indicum, UniProt D4Z2G1, L177A); format: biochemical
[13] = target: haloalkane dehalogenase LinB L177C (Sphingobium indicum, UniProt D4Z2G1, L177C); format: biochemical
[14] = target: haloalkane dehalogenase LinB L177G (Sphingobium indicum, UniProt D4Z2G1, L177G); format: biochemical
[15] = target: haloalkane dehalogenase LinB L177F (Sphingobium indicum, UniProt D4Z2G1, L177F); format: biochemical
[16] = target: haloalkane dehalogenase LinB L177K (Sphingobium indicum, UniProt D4Z2G1, L177K); format: biochemical
[17] = target: haloalkane dehalogenase LinB L177T (Sphingobium indicum, UniProt D4Z2G1, L177T); format: biochemical
[18] = target: haloalkane dehalogenase LinB L177W (Sphingobium indicum, UniProt D4Z2G1, L177W); format: biochemical
[19] = target: haloalkane dehalogenase LinB L177D (Sphingobium indicum, UniProt D4Z2G1, L177D); format: biochemical
[20] = target: haloalkane dehalogenase LinB L177H (Sphingobium indicum, UniProt D4Z2G1, L177H); format: biochemical
[21] = target: haloalkane dehalogenase LinB L177M (Sphingobium indicum, UniProt D4Z2G1, L177M); format: biochemical
[22] = target: haloalkane dehalogenase LinB L177Q (Sphingobium indicum, UniProt D4Z2G1, L177Q); format: biochemical
[23] = target: haloalkane dehalogenase LinB L177R (Sphingobium indicum, UniProt D4Z2G1, L177R); format: biochemical
[24] = target: haloalkane dehalogenase LinB L177S (Sphingobium indicum, UniProt D4Z2G1, L177S); format: biochemical
[25] = target: haloalkane dehalogenase LinB L177V (Sphingobium indicum, UniProt D4Z2G1, L177V); format: biochemical
[26] = target: haloalkane dehalogenase LinB L177Y (Sphingobium indicum, UniProt D4Z2G1, L177Y); format: biochemical
[27] = target: modified protein MUT01 with haloalkane dehalogenase activity (Rhodococcus rhodochrous, UniProt P0A3G2, A172V/C176G/F144A/G171R/INS140[…]/K175G/P142A/V245A/W141H); format: biochemical; settings: pH 8.2

COC(=O)C(C)Br (racemic) [methyl 2-bromopropionate]
E-values DhaA [1]: 68 | E-value, chiral recognition by DhaA ([1]; pH 8.2): > 200 | E-values LinB [2]: 52 | E-values DbjA [3]: >200 | enantioselectivity [4]: excellent enantioselectivity

CCOC(=O)C(Br)CC (racemic) [ethyl 2-bromobutyrate]
E-values DhaA [1]: >200 | E-values DhaA ([1]; pH 8.2): >200 | E-values LinB [2]: >200 | E-values LinB ([2]; pH 8.2): >200 | E-values DbjA [3]: >200 | E-values DbjA ([3]; pH 8.2): >200 | E-values DmbB [5]: >200 | E-values DmbC [6]: >200 | E-values DrbA [7]: >200 | E-values DhmA [8]: >200 | E-values DbeA [9]: >200

CCCC(C)Br (racemic) [2-bromopentane]
E-values DhlA [10]: 5.5 | E-values DhaA [1]: 7 | E-values LinB [2]: 16 | E-values DbjA [3]: 145 | E-value, chiral recognition by DbjA ([3]; pH 8.2): > 145 | E-value, chiral recognition by DbeA [9]: 98

C=C(C)CCl [3-chloro-2-methylpropene]
Relative activities (% of wt) wt1 [11]: 100 % of wt | Relative activities (% of wt) wt2 [11]: 100 % of wt | Relative activities (% of wt) L177A [12]: 199 % of wt | Relative activities (% of wt) L177C [13]: 157 % of wt | Relative activities (% of wt) L177G [14]: 200 % of wt | Relative activities (% of wt) L177F [15]: 98 % of wt | Relative activities (% of wt) L177K [16]: 110 % of wt | Relative activities (% of wt) L177T [17]: 96 % of wt | Relative activities (% of wt) L177W [18]: 91 % of wt | Relative activities (% of wt) L177D [19]: 25 % of wt | Relative activities (% of wt) L177H [20]: 82 % of wt | Relative activities (% of wt) L177M [21]: 100 % of wt | Relative activities (% of wt) L177Q [22]: 138 % of wt | Relative activities (% of wt) L177R [23]: 83 % of wt | Relative activities (% of wt) L177S [24]: 65 % of wt | Relative activities (% of wt) L177V [25]: 79 % of wt | Relative activities (% of wt) L177Y [26]: 78 % of wt

CCOC(=O)C(C)Br (racemic) [ethyl 2-bromopropionate]
E-values DhaA [1]: 59 | E-values LinB [2]: 97 | E-values DbjA [3]: 194 | E-value, chiral recognition by protein MUT01 [27]: > 200 | enantioselectivity [4]: excellent enantioselectivity

CC(Br)C(=O)c1ccccc1 (racemic) [2-bromopropiophenone]
E-values DhaA [1]: >200 | E-values LinB [2]: 13 | E-values DbjA [3]: >200 | E-value, chiral recognition by DbjA ([3]; pH 8.2): > 200 | enantioselectivity [4]: excellent enantioselectivity
